In one test the target is T1, FLT3 (Homo sapiens, UniProt P36888).
T1 sequence (P36888 27-993): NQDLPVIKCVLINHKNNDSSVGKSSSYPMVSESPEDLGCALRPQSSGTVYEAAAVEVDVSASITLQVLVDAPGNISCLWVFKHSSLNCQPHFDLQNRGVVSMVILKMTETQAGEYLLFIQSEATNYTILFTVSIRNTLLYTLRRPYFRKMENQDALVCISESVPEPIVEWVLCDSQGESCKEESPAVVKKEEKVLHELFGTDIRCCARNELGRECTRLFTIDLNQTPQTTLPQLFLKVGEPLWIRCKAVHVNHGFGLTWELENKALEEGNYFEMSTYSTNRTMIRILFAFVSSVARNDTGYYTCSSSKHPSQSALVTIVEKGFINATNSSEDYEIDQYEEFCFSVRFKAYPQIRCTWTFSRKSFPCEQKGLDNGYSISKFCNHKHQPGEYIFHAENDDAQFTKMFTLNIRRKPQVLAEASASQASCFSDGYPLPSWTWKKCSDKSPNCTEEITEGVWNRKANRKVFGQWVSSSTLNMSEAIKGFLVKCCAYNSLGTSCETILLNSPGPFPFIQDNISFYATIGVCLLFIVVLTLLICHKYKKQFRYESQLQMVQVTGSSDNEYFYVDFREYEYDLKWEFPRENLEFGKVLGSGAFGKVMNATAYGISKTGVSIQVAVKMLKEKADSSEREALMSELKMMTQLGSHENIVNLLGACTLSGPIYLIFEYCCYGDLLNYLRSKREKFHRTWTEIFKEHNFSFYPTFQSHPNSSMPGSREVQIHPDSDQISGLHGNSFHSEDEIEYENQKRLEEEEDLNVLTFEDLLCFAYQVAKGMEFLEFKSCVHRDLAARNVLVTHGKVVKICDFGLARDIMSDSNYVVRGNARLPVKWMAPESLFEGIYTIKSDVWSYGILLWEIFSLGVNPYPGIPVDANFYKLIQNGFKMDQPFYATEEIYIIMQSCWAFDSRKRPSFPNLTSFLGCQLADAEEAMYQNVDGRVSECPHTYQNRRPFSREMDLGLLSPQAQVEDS
Nature of the test: TR-FRET kinase activity assay, FLT3. It is filed as biochemical. To be noted: ATP at Km, 60 minutes. Put shortly: (§1)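 IC50 reflects the drop in TR-FRET between Eu anti-phosphotyrosine antibody and labelled peptide after a 60-minute room-temperature reaction. Buffer was 50 mM HEPES pH 7.5 with 10 mM MgCl2, 1 mM EGTA, 0.01% Brij 35 and 1 mM DTT, with ATP at Km per enzyme and EDTA quench.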

In another test the target is T2, MERTK (Homo sapiens, UniProt Q12866).
T2 sequence (Q12866 21-999): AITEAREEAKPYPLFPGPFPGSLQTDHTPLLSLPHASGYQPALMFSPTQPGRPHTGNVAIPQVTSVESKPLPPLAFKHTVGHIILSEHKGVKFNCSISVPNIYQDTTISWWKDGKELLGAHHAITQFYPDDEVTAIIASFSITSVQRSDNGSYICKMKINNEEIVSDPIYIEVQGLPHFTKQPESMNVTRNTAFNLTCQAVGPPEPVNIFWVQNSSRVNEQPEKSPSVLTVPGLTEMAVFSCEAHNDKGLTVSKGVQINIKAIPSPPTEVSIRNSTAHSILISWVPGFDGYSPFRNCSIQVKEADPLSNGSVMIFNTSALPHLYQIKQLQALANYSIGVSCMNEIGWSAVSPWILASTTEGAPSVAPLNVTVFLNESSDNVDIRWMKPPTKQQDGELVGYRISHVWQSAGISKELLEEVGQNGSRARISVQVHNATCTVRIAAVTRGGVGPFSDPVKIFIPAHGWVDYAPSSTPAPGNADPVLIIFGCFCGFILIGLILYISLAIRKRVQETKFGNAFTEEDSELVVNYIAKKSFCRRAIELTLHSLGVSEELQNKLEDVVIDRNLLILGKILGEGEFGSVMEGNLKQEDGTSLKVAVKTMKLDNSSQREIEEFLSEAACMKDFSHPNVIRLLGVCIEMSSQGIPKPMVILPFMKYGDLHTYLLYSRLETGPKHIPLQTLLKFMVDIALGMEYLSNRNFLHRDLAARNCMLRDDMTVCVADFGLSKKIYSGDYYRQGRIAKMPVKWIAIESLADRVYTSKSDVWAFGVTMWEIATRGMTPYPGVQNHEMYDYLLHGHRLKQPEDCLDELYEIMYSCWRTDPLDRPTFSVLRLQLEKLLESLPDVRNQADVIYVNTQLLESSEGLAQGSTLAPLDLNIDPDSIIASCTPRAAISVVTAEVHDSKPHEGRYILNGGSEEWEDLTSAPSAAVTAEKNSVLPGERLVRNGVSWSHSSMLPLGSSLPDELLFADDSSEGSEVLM
Nature of the test: TR-FRET kinase activity assay, MERTK. It is filed as biochemical. The following applies: for IC50: TR-FRET activity assay, ATP at Km, 60 minutes, read-out: Mer IC50; for FLT3/Mer ratio (FLT3 IC50/Mer IC50): ratio calculated as FLT3 IC50/Mer IC50. Put shortly:
as §1

As to `COC[C@H](C)Nc1ncc2c(-c3cnn(C(C)(C)C(=O)N4CCC(C)(O)C4)c3)cc([C@H]3CC[C@H](O)CC3)n2n1` (stereo partly drawn) [Compound 620], the IC50 on FLT3 is 1 to 10 µM. On MERTK, the IC50 is ≤ 0.1 µM and the “FLT3/Mer ratio (FLT3 IC50/Mer IC50)” value is given as “+++ (“+++” represents a ratio of >100)”.
As for `COC[C@H](C)Nc1ncc2c(-c3cnn(C(C)(C)C(=O)N4CCCC(C)(O)C4)c3)cc([C@H]3CC[C@H](O)CC3)n2n1` (stereo partly drawn) [Compound 621], on FLT3, the IC50 lay in the range of 0.1 to 1 µM. In addition, at MERTK, the IC50 is ≤ 0.1 µM and the “FLT3/Mer ratio (FLT3 IC50/Mer IC50)” value is “+++ (“+++” represents a ratio of >100)”.
As for `COC[C@H](C)Nc1ncc2c(-c3cnn(C(C)(C)C(=O)N4CC(C)(O)C4)c3)cc([C@H]3CC[C@H](O)CC3)n2n1` [Compound 622], the IC50 against FLT3 is 1 to 10 µM. At MERTK, the IC50 was ≤ 0.1 µM and the “FLT3/Mer ratio (FLT3 IC50/Mer IC50)” value was “+++ (“+++” represents a ratio of >100)”.
The molecule `COC[C@H](C)Nc1ncc2c(-c3cnn(C(C)(C)c4nc(C)co4)c3)cc([C@H]3CC[C@H](O)CC3)n2n1` [Compound 623] had an IC50 at FLT3 of 1 to 10 µM. Besides, on MERTK, the IC50 is ≤ 0.1 µM and the “FLT3/Mer ratio (FLT3 IC50/Mer IC50)” value is given as “+++ (“+++” represents a ratio of >100)”.
For the molecule `COC[C@H](C)Nc1ncc2c(-c3cnn(C4COC4)c3)cc([C@H]3CCc4[nH]ncc4C3)n2n1` [Compound 624], the IC50 on FLT3 and on MERTK was ≤ 0.1 µM in each case. Moreover, at MERTK, the “FLT3/Mer ratio (FLT3 IC50/Mer IC50)” value was “++ (“++” represents a ratio of between 10 and 100)”.
`COC[C@H](C)Nc1ncc2c(-c3cnn(C(C)(C)c4nnc(C)s4)c3)cc([C@H]3CC[C@H](O)CC3)n2n1` [Compound 625]: on FLT3, the half-inhibitory concentration (IC50) fell in the range of 0.1 to 1 µM. For the same molecule, at MERTK, the IC50 is ≤ 0.1 µM and the “FLT3/Mer ratio (FLT3 IC50/Mer IC50)” value was “+++ (“+++” represents a ratio of >100)”.
`C[C@@H](CC(F)(F)F)Nc1ncc2c(-c3cnn(C(C)(C)C(=O)N4CCN(C)CC4)c3)cc(C3CCC(O)CC3)n2n1` (stereo partly drawn) [Compound 626]: the IC50 against FLT3 is ≤ 0.1 µM. In addition, at MERTK, the IC50 was ≤ 0.1 µM; the “FLT3/Mer ratio (FLT3 IC50/Mer IC50)” value was “++ (“++” represents a ratio of between 10 and 100)”.
In turn, `COC[C@H](C)Nc1ncc2c(-c3ccnc(S(C)(=O)=O)c3)cc(C3CCC(O)CC3)n2n1` (stereo partly drawn) [Compound 627] gave an IC50 at FLT3 of 1 to 10 µM. Further, on MERTK, the IC50 was ≤ 0.1 µM and the “FLT3/Mer ratio (FLT3 IC50/Mer IC50)” value is listed as “+++ (“+++” represents a ratio of >100)”.
`COC[C@H](C)Nc1ncc2c(-c3cnn(C(C)(C)c4ncc(C)o4)c3)cc(C3CCC(O)CC3)n2n1` (stereo partly drawn) [Compound 628] came in with an IC50 at FLT3 of 1 to 10 µM. Also, on MERTK, the IC50 is ≤ 0.1 µM and the “FLT3/Mer ratio (FLT3 IC50/Mer IC50)” value was “+++ (“+++” represents a ratio of >100)”.
The like results for `[2H]C([2H])([2H])OCC(C)Nc1ncc2c(-c3ccnc(N4CCOCC4)c3)cc(C3CCC(O)CC3)n2n1` (stereo not drawn) [Compound 629] were, in that order, 0.1 to 1 µM, ≤ 0.1 µM and “+++ (“+++” represents a ratio of >100)”.
Molecule `[2H]C([2H])([2H])OCC(C)Nc1ncc2c(-c3cnn(C4COC4)c3)cc(C3CCC(O)CC3)n2n1` (stereo not drawn) [Compound 630] displayed an IC50 against FLT3 of 0.1 to 1 µM. On MERTK, the IC50 is ≤ 0.1 µM and the “FLT3/Mer ratio (FLT3 IC50/Mer IC50)” value is “+++ (“+++” represents a ratio of >100)”.
In the case of `COC[C@H](C)Nc1ncc2c(-c3cnn(C(C)(C)c4nnc(N5CCOCC5)o4)c3)cc(C3CCC(O)CC3)n2n1` (stereo partly drawn) [Compound 631], the results for the IC50 at FLT3 and on MERTK were 1 to 10 µM and ≤ 0.1 µM, respectively. At MERTK, the “FLT3/Mer ratio (FLT3 IC50/Mer IC50)” value is on record as “+++ (“+++” represents a ratio of >100)”.
At FLT3, `COC[C@H](C)Nc1ncc2c(-c3ccnc(N4CC(C)(O)C4)c3)cc(C3CCC(O)CC3)n2n1` (stereo partly drawn) [Compound 632] showed an IC50 of 0.1 to 1 µM. Also, on MERTK, the IC50 was ≤ 0.1 µM and the “FLT3/Mer ratio (FLT3 IC50/Mer IC50)” value is “+++ (“+++” represents a ratio of >100)”.
The like results for `COC[C@H](C)Nc1ncc2c(-c3ccnc(N4CCC(C)(O)C4)c3)cc(C3CCC(O)CC3)n2n1` (stereo partly drawn) [Compound 633] were, in that order, 0.1 to 1 µM, ≤ 0.1 µM and “+++ (“+++” represents a ratio of >100)”.

As a reminder, the IC50 is the midpoint of a concentration-inhibition curve.

The values above are taken from patent US11040981B2, “Pyrrolotriazine compounds and methods of inhibiting TAM kinases” (Syros Pharmaceuticals, Inc., priority 2017, dated 2021).
